Data from US10266526B2, “Substituted 1,2,3-triazoles as SMYD inhibitors for treating cancer” (EPIZYME, INC., priority 2014, dated 2019).

Target: SMYD3 (Homo sapiens (Human), UniProt Q9H7B4)
Test: SMYD3 biochemical assay (SMYD3 enzyme assay on MEKK2 protein substrate, 3H-SAM scintillation proximity assay)
Conditions: read-out: SMYD3 Biochem IC50
Outline: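 Native full-length human SMYD3, expressed in E. coli, was preincubated with compound for 30 min at room temperature in 25 mM Tris-Cl pH 8.0, 1 mM TCEP, 0.005% BSG and 0.005% Tween 20. ³H-SAM plus GST-MEKK2 then started the reaction. It was stopped with unlabeled SAM (100 uM final), and methylated MEKK2 was read by SPA.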

SMYD3, sequence (Q9H7B4 whole entry): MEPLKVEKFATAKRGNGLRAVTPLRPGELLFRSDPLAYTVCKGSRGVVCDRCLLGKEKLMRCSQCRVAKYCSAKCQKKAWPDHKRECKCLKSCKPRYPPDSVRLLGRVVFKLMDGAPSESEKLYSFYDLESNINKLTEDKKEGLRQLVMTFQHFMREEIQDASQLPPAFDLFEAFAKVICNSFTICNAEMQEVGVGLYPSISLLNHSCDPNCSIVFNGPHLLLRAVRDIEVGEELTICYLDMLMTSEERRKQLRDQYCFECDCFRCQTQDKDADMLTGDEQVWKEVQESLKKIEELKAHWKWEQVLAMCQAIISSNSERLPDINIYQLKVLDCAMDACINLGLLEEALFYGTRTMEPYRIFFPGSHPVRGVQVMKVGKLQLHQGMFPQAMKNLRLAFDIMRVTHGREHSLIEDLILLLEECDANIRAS

Compound | IC50 [µM]
N[C@H]1CC[C@H](NC(=O)[C@H]2C[C@H](O)CN2)CC1 [compound 435, (2R,4S)-N-((1r,4r)-4-aminocyclohexyl)-4-hydroxypyrrolidine-2-carboxamide] | > 100
N[C@H]1CC[C@H](NC(=O)[C@H]2CCc3ccccc3N2)CC1 [compound 436, (R)-N-((1r,4r)-4-aminocyclohexyl)-1,2,3,4-tetrahydroquinoline-2-carboxamide] | 12.5
NCCC(=O)N[C@H]1CC[C@H](NC(=O)c2ccc(N)cn2)CC1 [compound 437, 5-amino-N-((1r,4r)-4-(3-aminopropanamido)cyclohexyl)picolinamide] | > 100
NCCC(=O)N[C@H]1CC[C@H](NC(=O)c2ccc(Cl)cc2C(F)(F)F)CC1 [compound 439, N-((1r,4r)-4-(3-aminopropanamido)cyclohexyl)-4-chloro-2-(trifluoromethyl)benzamide] | > 100
NCCC(=O)N[C@H]1CC[C@H](NC(=O)c2cccc3c2OC(F)(F)O3)CC1 [compound 440, N-((1r,4r)-4-(3-aminopropanamido)cyclohexyl)-2,2-difluorobenzo[d][1,3]dioxole-4-carboxamide] | > 100
NCCC(=O)N[C@H]1CC[C@H](NC(=O)c2cncs2)CC1 [compound 442, N-((1r,4r)-4-(3-aminopropanamido)cyclohexyl)thiazole-5-carboxamide] | > 100
NCCC(=O)N[C@H]1CC[C@H](NC(=O)Cc2cc(F)cc(F)c2)CC1 [compound 443, 3-amino-N-((1r,4r)-4-(2-(3,5-difluorophenyl)acetamido)cyclohexyl)propanamide] | > 100
CC(=O)Nc1ccc(C(=O)N[C@H]2CC[C@H](N)CC2)nc1 [compound 444, 5-acetamido-N-((1r,4r)-4-aminocyclohexyl)picolinamide] | > 100
CC(NC(=O)c1cn2ncccc2n1)C1CCN(C(=O)[C@H](C)N)CC1 (stereo partly drawn) [compound 445, N-(1-(1-(L-alanyl)piperidin-4-yl)ethyl)imidazo[1,2-b]pyridazine-2-carboxamide] | > 100
N[C@H]1CC[C@H](NC(=O)c2cn3ncccc3n2)CC1 [compound 447, N-((1r,4r)-4-aminocyclohexyl)imidazo[1,2-b]pyridazine-2-carboxamide] | > 100
NCCC(=O)N[C@H]1CC[C@H](NS(=O)(=O)c2ccc3c(c2)CC(=O)N3)CC1 [compound 449, 3-amino-N-((1r,4r)-4-((2-oxoindoline)-5-sulfonamido)cyclohexyl)propanamide] | > 100
CC1Oc2ccc(C(=O)N[C@H]3CC[C@H](N)CC3)cc2NC1=O (stereo partly shown) [compound 452, N-((1r,4r)-4-aminocyclohexyl)-2-methyl-3-oxo-3,4-dihydro-2H-benzo[b][1,4]oxazine-6-carboxamide] | 39.1
N[C@H]1CC[C@H](NC(=O)c2ccc(-n3cncn3)cc2)CC1 [compound 455, N-((1r,4r)-4-aminocyclohexyl)-4-(1H-1,2,4-triazol-1-yl)benzamide] | > 100
NCCC(=O)N[C@H]1CC[C@H](NC(=O)c2cc3ccccc3nc2O)CC1 [compound 456, N-((1r,4r)-4-(3-aminopropanamido)cyclohexyl)-2-hydroxyquinoline-3-carboxamide] | 22
N[C@H]1CC[C@H](NC(=O)Cc2cccc(C(F)(F)F)c2)CC1 [compound 457, N-((1r,4r)-4-aminocyclohexyl)-2-(3-(trifluoromethyl)phenyl)acetamide] | > 100
Cc1nc2ccccc2c(C(=O)N[C@H]2CC[C@H](N)CC2)c1N [compound 458, 3-amino-N-((1r,4r)-4-aminocyclohexyl)-2-methylquinoline-4-carboxamide] | > 100
N[C@H]1CC[C@H](NC(=O)c2cc3cccc(O)c3cc2O)CC1 [compound 460, N-((1r,4r)-4-aminocyclohexyl)-3,5-dihydroxy-2-naphthamide] | 20.7
O=C1CC2CN(C(=O)CC3CCNCC3)CCC2N1 (stereo not shown) [compound 461, 5-(2-(piperidin-4-yl)acetyl)octahydro-2H-pyrrolo[3,2-c]pyridin-2-one] | > 100
CC(=O)Nc1ccc(C(=O)NC(C)C2CCN(C(=O)[C@H](C)N)CC2)nc1 (stereo partly drawn) [compound 462, N-(1-(1-(L-alanyl)piperidin-4-yl)ethyl)-5-acetamidopicolinamide] | > 100
CC(=O)Nc1ccc(C(=O)N[C@H]2CC[C@H](NC(=O)CCN)CC2)nc1 [compound 463, 5-acetamido-N-((1r,4r)-4-(3-aminopropanamido)cyclohexyl)picolinamide] | > 100
NCCC(=O)N[C@H]1CC[C@H](NC(=O)Cc2ccc3c(c2)CC(=O)N3)CC1 [compound 465, 3-amino-N-((1r,4r)-4-(2-(2-oxoindolin-5-yl)acetamido)cyclohexyl)propanamide] | 38.8
NCCC(=O)N[C@H]1CC[C@H](C(=O)Nc2ccc3c(c2)CC(=O)N3)CC1 [compound 467, (1r,4r)-4-(3-aminopropanamido)-N-(2-oxoindolin-5-yl)cyclohexane-1-carboxamide] | 4.46
CC(C)(CNC(=O)CCN)CNS(=O)(=O)c1ccc2c(c1)CC(=O)N2 [compound 468, 3-amino-N-(2,2-dimethyl-3-((2-oxoindoline)-5-sulfonamido)propyl)propanamide] | 18.3
CC(NC(=O)c1ccc2c(c1)CNC2=O)C1CCN(C(=O)[C@H](C)N)CC1 (stereo partly drawn) [compound 469, N-(1-(1-(L-alanyl)piperidin-4-yl)ethyl)-1-oxoisoindoline-5-carboxamide] | > 100
NCCC(=O)N[C@H]1CC[C@H](NC(=O)c2ccc3c(c2)CC(=O)N3)CC1 [compound 471, N-((1r,4r)-4-(3-aminopropanamido)cyclohexyl)-2-oxoindoline-5-carboxamide] | 0.61
CC(NC(=O)c1cc2ccccc2nc1O)C1CCN(C(=O)[C@H](C)N)CC1 (stereo partly drawn) [compound 474, N-(1-(1-(L-alanyl)piperidin-4-yl)ethyl)-2-hydroxyquinoline-3-carboxamide] | 22.1
N[C@H]1CC[C@H](NC(=O)c2cc3ccccc3nc2O)CC1 [compound 475, N-((1r,4r)-4-aminocyclohexyl)-2-hydroxyquinoline-3-carboxamide] | 22.2
CC(NC(=O)Cc1cccc(C(F)(F)F)c1)C1CCN(C(=O)[C@H](C)N)CC1 (stereo partly drawn) [compound 476, N-(1-(1-(L-alanyl)piperidin-4-yl)ethyl)-2-(3-(trifluoromethyl)phenyl)acetamide] | 51.1
NCCC(=O)N[C@H]1CC[C@H](NC(=O)Cc2cccc(C(F)(F)F)c2)CC1 [compound 477, 3-amino-N-((1r,4r)-4-(2-(3-(trifluoromethyl)phenyl)acetamido)cyclohexyl)propanamide] | 22.8

The remaining lines, values ahead:

IC50 [µM] | Compound
> 100 | Nc1ccc(C(=O)N[C@H]2CC[C@H](N)CC2)nc1 [compound 438, 5-amino-N-((1r,4r)-4-aminocyclohexyl)picolinamide]
37.5 | CC(NC(=O)c1cc2cccc(O)c2cc1O)C1CCN(C(=O)[C@H](C)N)CC1 (stereo partly drawn) [compound 441, N-(1-(1-(L-alanyl)piperidin-4-yl)ethyl)-3,5-dihydroxy-2-naphthamide]
> 100 | NCCC(=O)N[C@H]1CC[C@H](NC(=O)c2cn3ncccc3n2)CC1 [compound 446, N-((1r,4r)-4-(3-aminopropanamido)cyclohexyl)imidazo[1,2-b]pyridazine-2-carboxamide]
> 100 | N[C@H]1CC[C@H](NC(=O)Cc2ccc3c(c2)CC(=O)N3)CC1 [compound 448, N-((1r,4r)-4-aminocyclohexyl)-2-(2-oxoindolin-5-yl)acetamide]
25.4 | CC1Oc2ccc(C(=O)NC(C)C3CCN(C(=O)[C@H](C)N)CC3)cc2NC1=O (stereo partly drawn) [compound 450, N-(1-(1-(L-alanyl)piperidin-4-yl)ethyl)-2-methyl-3-oxo-3,4-dihydro-2H-benzo[b][1,4]oxazine-6-carboxamide]
9.9 | CC1Oc2ccc(C(=O)N[C@H]3CC[C@H](NC(=O)CCN)CC3)cc2NC1=O (stereo partly shown) [compound 451, N-((1r,4r)-4-(3-aminopropanamido)cyclohexyl)-2-methyl-3-oxo-3,4-dihydro-2H-benzo[b][1,4]oxazine-6-carboxamide]
> 100 | Cc1nn(C(C)C(=O)N[C@H]2CC[C@H](N)CC2)c(C)c1Br (stereo partly shown) [compound 454, N-((1r,4r)-4-aminocyclohexyl)-2-(4-bromo-3,5-dimethyl-1H-pyrazol-1-yl)propanamide]
> 100 | NC1CCC(NC(=O)[C@H]2Cc3ccccc3CN2)CC1 (stereo partly drawn) [compound 459, (3R)-N-(4-aminocyclohexyl)-1,2,3,4-tetrahydroisoquinoline-3-carboxamide]
32.7 | CC(NC(=O)c1noc(C2CC2)n1)C1CCN(C(=O)[C@H](C)N)CC1 (stereo partly drawn) [compound 464, N-(1-(1-(L-alanyl)piperidin-4-yl)ethyl)-5-cyclopropyl-1,2,4-oxadiazole-3-carboxamide]
60 | CC(NC(=O)Cc1ccc2c(c1)CC(=O)N2)C1CCN(C(=O)[C@H](C)N)CC1 (stereo partly drawn) [compound 466, N-(1-(1-(L-alanyl)piperidin-4-yl)ethyl)-2-(2-oxoindolin-5-yl)acetamide]
7.46 | N[C@H]1CC[C@H](NC(=O)c2ccc3c(c2)C(=O)C(=O)N3)CC1 [compound 470, N-((1r,4r)-4-aminocyclohexyl)-2,3-dioxoindoline-5-carboxamide]
> 100 | CC(NC(=O)c1ccc(-n2cncn2)cc1)C1CCN(C(=O)[C@H](C)N)CC1 (stereo partly drawn) [compound 472, N-(1-(1-(L-alanyl)piperidin-4-yl)ethyl)-4-(1H-1,2,4-triazol-1-yl)benzamide]
53.1 | NCCC(=O)N[C@H]1CC[C@H](NC(=O)c2ccc(-n3cncn3)cc2)CC1 [compound 473, N-((1r,4r)-4-(3-aminopropanamido)cyclohexyl)-4-(1H-1,2,4-triazol-1-yl)benzamide]
31.6 | Cc1nc2ccccc2c(C(=O)N[C@H]2CC[C@H](NC(=O)CCN)CC2)c1N [compound 478, 3-amino-N-((1r,4r)-4-(3-aminopropanamido)cyclohexyl)-2-methylquinoline-4-carboxamide]
